Laboratory results taken from PubChem BioAssay AID1918956 (Molecular Pharmacology Branch, DTP, NCI, 2023).

System: OVCAR-5 complex spheroids, viability
Assay: Anticancer human tumor OVCAR-5 cell line growth inhibition;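 note: spheroids exposed to agents for seven days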;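 for viability, T/C: 100% = DMSO vehicle control wells viability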
Conditions: for IC50: curve of first compound; for viability, T/C: stronger effect = lower value
From the text: Multicellular complex tumor spheroid response to LSD1 Inhibitor Iadademstat in combination with a variety of drugs and investigational agents in selected tumor cell lines
The current study was undertaken to assess response to LSD1 inhibitors in combination with standard-of-care drugs and investigational agents in solid tumor complex spheroid models as well as in the K-562 leukemia. Complex spheroids include a stromal component modeled by human endothelial cells (HUVEC) and fibroblasts modeled by human mesenchymal stem cells (MSCs). The concentration ranges selected for each drug and investigational agent were based upon clinically achievable concentrations if the clinical Cmax of the agent was known.
Compounds. The drugs and investigational agents used in this study are listed on Table 1. All of the agents used, including staurosporine (NSC755774) and gemcitabine (NSC613327), were obtained from the Developmental Therapeutics Program, NCI. FDA-approved anticancer drugs are available from the NCI at http://dtp.nci.nih.gov/branches/dscb/oncology_drugset_explanation.html. Drugs and investigational agents were >95% pure by proton nuclear magnetic resonance (NMR) and liquid chromatography/mass spectrometry (LC/MS). Stock solutions were prepared at 400x in DMSO, stored at -70 degrees C, and diluted in fresh medium prior to their use. The final concentration of DMSO in cell culture wells never exceeded 0.25% (v/v). The FDA-approved anticancer drug set is available from the Developmental Therapeutics Program at https://dtp.cancer.gov/organization/dscb/obtaining/available_plates.htm. All drugs and investigational agents were tested over a range starting from a high concentration at or near the clinical Cmax and decreasing in half-log increments. If the clinical Cmax for an agent had not been determined, the highest concentration tested was 10 microM.
Cell Lines. The patient-derived cancer cell (PDC) lines: 292921-168-R-J2-PDC, K24384-001-R-PDC, and 521955-158-R2-J5-PDC pancreatic carcinomas, 556581-035-R-J1 ovarian carcinoma, 324938-238-R-J1-PDC, 855422-203-R-J1-PDC and 883617-216-R-J1-PDC urothelial bladder carcinomas, 743489-274-T-PDC renal cell carcinoma, 138582-R-J1 Merkel cell tumor, K60290-347-R-J1 and K57222-313-R-J1-PDC glioblastomas, 653999-131-R-J2-PDC, LG0703-F948-PDC, and 349418-098-R-PDC non-small cell lung carcinomas, 885512-296-R-J2-PDC, 171881-019-R-J1-PDC breast carcinomas and 186277-243-T-J2-PDC and 233499-124-R-J2-PDC colon carcinomas were obtained from the NCI Patient-Derived Models Repository (PDMR, https://pdmr.cancer.gov). The established cell lines NCI/ADR-RES (RRID:CVCL_14520 and OVCAR-5 (RRID:CVCL_1628) ovarian carcinomas, 786-O (RRID:CVCL_1051) and A498 […] renal cell carcinoma, NCI-H211 (ATCC, cat. CRL-5824; RRID:CVCL_1529), NCI-H196 (ATCC, cat. CRL-5823, RRID:CVCL_1509), SW 1271 (ATCC, cat. CRL-2177, RRID:CVCL_1716) and NCI-H1876 (ATCC, cat. CRL-5902, RRID:CVCL_1503) small cell lung carcinomas, MDA-MB-231 (RRID:CVCL_0062) and MDA-MB-468 (RRID:CVCL_0419)breast carcinomas (10-12). Pooled donor human umbilical vein endothelial cells (HUVEC, Lonza, cat. CC-2519) and human mesenchymal stem cells (hMSC, Lonza, cat. PT-2501) were purchased from Lonza (Walkersville, MD).
Cell Culture. All cells were maintained in an incubator at 37 degrees C and 5% CO2 with 95% humidity. The PDC lines were cultured according to standard operating procedures established by the NCI PDMR (https://pdmr.cancer.gov). Briefly all PDCs were thawed and cultured in Matrigel-coated flasks prepared with a working solution of 1X Ham's F-12 nutrient mix, without supplementation (Invitrogen, Waltham, MA, cat. 11765054), 100 U/mL penicillin-streptomycin (Invitrogen, cat. 15140122), and 2.5% Matrigel (Corning Inc., Corning, NY, cat. 354248) for the first three passages. […]

Structure (SMILES): COc1cc(C2c3cc4c(cc3C(OC3OC5COC(C)OC5C(O)C3O)C3COC(=O)C23)OCO4)cc(OC)c1O (stereo not given) + NC1CC1c1ccc(-c2cccc(O)c2)cc1
- IC50 (second compound 0.1 µM): 407 nM
- IC50 (second compound 0.316 µM): 503 nM
- IC50 (second compound 1 µM): 397 nM
- IC50 (second compound 3.16 µM): 422 nM
- IC50 (second compound 10 µM): 302 nM
- viability, T/C (second compound 0.1 µM, first compound 0.00949 µM): 94.9%
- viability, T/C (second compound 0.1 µM, first compound 0.03 µM): 93.3%
- viability, T/C (second compound 0.1 µM, first compound 0.0949 µM): 80.2%
- viability, T/C (second compound 0.1 µM, first compound 0.3 µM): 55.3%
- viability, T/C (second compound 0.1 µM, first compound 0.949 µM): 36.1%
- viability, T/C (second compound 0.1 µM, first compound 3 µM): 32.5%
- viability, T/C (second compound 0.316 µM, first compound 0.00949 µM): 96.7%
- viability, T/C (second compound 0.316 µM, first compound 0.03 µM): 109%
- viability, T/C (second compound 0.316 µM, first compound 0.0949 µM): 91.8%
- viability, T/C (second compound 0.316 µM, first compound 0.3 µM): 61.7%
- viability, T/C (second compound 0.316 µM, first compound 0.949 µM): 35.8%
- viability, T/C (second compound 0.316 µM, first compound 3 µM): 32.3%
- viability, T/C (second compound 1 µM, first compound 0.00949 µM): 100%
- viability, T/C (second compound 1 µM, first compound 0.03 µM): 103%
- viability, T/C (second compound 1 µM, first compound 0.0949 µM): 85.5%
- viability, T/C (second compound 1 µM, first compound 0.3 µM): 56.8%
- viability, T/C (second compound 1 µM, first compound 0.949 µM): 31.4%
- viability, T/C (second compound 1 µM, first compound 3 µM): 32.4%
- viability, T/C (second compound 3.16 µM, first compound 0.00949 µM): 89.1%
- viability, T/C (second compound 3.16 µM, first compound 0.03 µM): 85.2%
- viability, T/C (second compound 3.16 µM, first compound 0.0949 µM): 74.9%
- viability, T/C (second compound 3.16 µM, first compound 0.3 µM): 55%
- viability, T/C (second compound 3.16 µM, first compound 0.949 µM): 38.4%
- viability, T/C (second compound 3.16 µM, first compound 3 µM): 34.6%
- viability, T/C (second compound 10 µM, first compound 0.00949 µM): 85.1%
- viability, T/C (second compound 10 µM, first compound 0.03 µM): 88.8%
- viability, T/C (second compound 10 µM, first compound 0.0949 µM): 67.5%
- viability, T/C (second compound 10 µM, first compound 0.3 µM): 53.3%
- viability, T/C (second compound 10 µM, first compound 0.949 µM): 35.2%
- viability, T/C (second compound 10 µM, first compound 3 µM): 37%

Structure (SMILES): Nc1ncn(C2CC(O)C(CO)O2)c(=O)n1 (stereo not given) + NC1CC1c1ccc(-c2cccc(O)c2)cc1
- IC50 (second compound 0.1 µM): > 1000 nM
- IC50 (second compound 0.316 µM): > 1000 nM
- IC50 (second compound 1 µM): > 1000 nM
- IC50 (second compound 3.16 µM): > 1000 nM
- IC50 (second compound 10 µM): > 1000 nM
- viability, T/C (second compound 0.1 µM, first compound 0.00316 µM): 103%
- viability, T/C (second compound 0.1 µM, first compound 0.01 µM): 98.5%
- viability, T/C (second compound 0.1 µM, first compound 0.0316 µM): 83.4%
- viability, T/C (second compound 0.1 µM, first compound 0.1 µM): 74.2%
- viability, T/C (second compound 0.1 µM, first compound 0.316 µM): 68.2%
- viability, T/C (second compound 0.1 µM, first compound 1 µM): 65.8%
- viability, T/C (second compound 0.316 µM, first compound 0.00316 µM): 93.6%
- viability, T/C (second compound 0.316 µM, first compound 0.01 µM): 98.5%
- viability, T/C (second compound 0.316 µM, first compound 0.0316 µM): 87.4%
- viability, T/C (second compound 0.316 µM, first compound 0.1 µM): 70.5%
- viability, T/C (second compound 0.316 µM, first compound 0.316 µM): 70.2%
- viability, T/C (second compound 0.316 µM, first compound 1 µM): 66.2%
- viability, T/C (second compound 1 µM, first compound 0.00316 µM): 94.9%
- viability, T/C (second compound 1 µM, first compound 0.01 µM): 99.6%
- viability, T/C (second compound 1 µM, first compound 0.0316 µM): 87.6%
- viability, T/C (second compound 1 µM, first compound 0.1 µM): 66.1%
- viability, T/C (second compound 1 µM, first compound 0.316 µM): 67.8%
- viability, T/C (second compound 1 µM, first compound 1 µM): 66.7%
- viability, T/C (second compound 3.16 µM, first compound 0.00316 µM): 89%
- viability, T/C (second compound 3.16 µM, first compound 0.01 µM): 85.9%
- viability, T/C (second compound 3.16 µM, first compound 0.0316 µM): 70.3%
- viability, T/C (second compound 3.16 µM, first compound 0.1 µM): 72%
- viability, T/C (second compound 3.16 µM, first compound 0.316 µM): 61.1%
- viability, T/C (second compound 3.16 µM, first compound 1 µM): 64.5%
- viability, T/C (second compound 10 µM, first compound 0.00316 µM): 83%
- viability, T/C (second compound 10 µM, first compound 0.01 µM): 80.1%
- viability, T/C (second compound 10 µM, first compound 0.0316 µM): 72%
- viability, T/C (second compound 10 µM, first compound 0.1 µM): 60.3%
- viability, T/C (second compound 10 µM, first compound 0.316 µM): 58%
- viability, T/C (second compound 10 µM, first compound 1 µM): 61.2%
